Measured values: patent US20060122153A1, “Antineoplastic ether lipid compounds with modifications at the sn-2 carbon” (priority 2003, published 2006)
Values joined by “and” are separate entries in the source; they are usually repeats but may differ in a detail not shown here. Identical values can stand only once.

What was measured:
[1] = tested on: NIH-3T3; assay: In vitro growth inhibition (GI50), SRB assay, normal fibroblast; type: cell-based, mouse; settings: NIH-3T3 normal murine fibroblast cell line, 3 days
From the text: The following cell lines were selected from the cell bank for screening and GI50 studies: MCF-7: human breast tumor, MCF-7/ADR: MCF-7 adriamycin resistant subline, HT-29: human colon carcinoma, A-549: human non-small cell lung cancer, NIH-3T3: mouse Swiss embryo fibroblast and WI-38: human lung fibroblast, SKMEL-28: human melanoma, Lewis Lung: mouse lung carcinoma, DU-145: prostate carcinoma, B16F10: mouse melanoma, L1210: murine lymphocytic leukemia, P-388: murine leukemia, U-937: human histolytic lymphoma. Except HT-29, WI-38, NIH-3T3 and Lewis Lung which were obtained from the American Type Culture Collection (Rockville, Md.) all the other cell lines were obtained from National Cancer Institute—Frederick Research Facility (Frederick, Md.). All the cell lines were grown in RPMI-1640 medium containing 10% fetal bovine serum (FBS) except WI-38 and DU-145 which were grown in EMEM+10% FBS at 37° C., 5% CO2 and 100% humidity and NIH-3T3, Lewis Lung, B16F10 and L1210 which were grown in DMEM containing 10% FBS (10% HS for L1210). […]
The test compounds were made in-house and the compounds were dissolved PBS or saline at a stock concentration of approximately 20 mM, which is 400 times the desired final maximum test concentration. […] After 3 days of incubation, cell growth was determined.
The SRB assay was performed as described by Monks, A., Scudiero, D., Skehan, P., Shoemaker, R., Paull, K., Vistica, D., Hose, C., Langley, J., Cronise, P., and Vaigro-Wolff, A. Feasibility of a high-flux anticancer drug screen using a diverse panel of cultured human tumo-r cell lines. […] Bound SRB was solubilized with Tris buffer (10 mM), and the ODs were read using an automated plate reader (Bio-Rad, Model 3550-UV) at 490 nm. Background values were subtracted from the test data, and the data was calculated as a % of control. […] Percentage growth was calculated as described by, Peters, A. C., Ahmad, I., Janoff, A. S., Pushkareva, M. Y., and Mayhew, E. Growth Inhibitory effects of liposome-associated 1-o-octadecyl-2-o-methyl-sn-glycero-3-phosphocholine. […]

[2] = tested on: SF-539; assay: NCI growth inhibition screen, CNS panel; type: cell-based, human; parameters: key: = means equivalent activity; + means that it appears to be significantly better (i.e., by ˜2x); < means it appears to be less active than ET18OCH3 (˜2x); a combination like =/+ or </+ means that activity is dependent upon the isomer; a combination like =/+ or </+ means that activity is dependent upon the isomer; settings: SF-539, CNS; from GI50s
Procedure: (§1) Candidates deemed suitable for in vivo testing were then synthesized in large scale quantities and some of this material was sent to the NCI's Developmental Therapeutics Program for a battery of growth inhibitory studies against various human tumor cell lines (60 cell lines, 9 different panels). The remainder of the material was used to assess in vivo efficacy using murine tumor models. Additionally, studies were conducted on the lead candidates to discern mechanism of action with particular emphasis on these agents apoptotic ability as measured by caspase 3 activity. The details (materials and methods) for these various assays are described further in the following discussion.
(§2) Ten compounds were also sent to NCI's Drug Discovery Program for screening against numerous human tumor cell lines (9 panels total: renal ovarian, colon, CNS, non-small cell lung, leukemia, breast, melanoma, and prostate). The data are shown in FIGS. 2a-i which also include data regarding D- and L-ET-18-OCH3 (listed as L-EL and D-EL in the figures). Upon examining the data, one is struck by how 1R and 1a′S standout in comparison to the other compounds, especially for the renal, ovarian, colon, and CNS panels.

[3] = tested on: DU145; assay: NCI growth inhibition screen, prostate panel; type: cell-based, human; parameters: key: = means equivalent activity; + means that it appears to be significantly better (i.e., by ˜2x); < means it appears to be less active than ET18OCH3 (˜2x); a combination like =/+ or </+ means that activity is dependent upon the isomer; a combination like =/+ or </+ means that activity is dependent upon the isomer; settings: from GI50s
Procedure: as §1, §2

[4] = tested on: PC-3; assay: NCI growth inhibition screen, prostate panel; type: cell-based, human; parameters: key: = means equivalent activity; + means that it appears to be significantly better (i.e., by ˜2x); < means it appears to be less active than ET18OCH3 (˜2x); a combination like =/+ or </+ means that activity is dependent upon the isomer; a combination like =/+ or </+ means that activity is dependent upon the isomer; settings: PC-3, Prostate; from GI50s
Procedure: as §1, §2

[5] = tested on: M14; assay: NCI growth inhibition screen, melanoma panel; type: cell-based, human; parameters: key: = means equivalent activity; + means that it appears to be significantly better (i.e., by ˜2x); < means it appears to be less active than ET18OCH3 (˜2x); a combination like =/+ or </+ means that activity is dependent upon the isomer; a combination like =/+ or </+ means that activity is dependent upon the isomer; settings: from GI50s
Procedure: as §1, §2

[6] = tested on: SK-MEL-28; assay: NCI growth inhibition screen, melanoma panel; type: cell-based, human; parameters: key: = means equivalent activity; + means that it appears to be significantly better (i.e., by ˜2x); < means it appears to be less active than ET18OCH3 (˜2x); a combination like =/+ or </+ means that activity is dependent upon the isomer; a combination like =/+ or </+ means that activity is dependent upon the isomer; settings: SK-MEL-28, Melanoma; from GI50s
Procedure: as §1, §2

## CCCCCCCCCCCCCCCCCCOC[C@@H](COP(=O)([O-])OCC[N+](C)(C)C)OS(C)(=O)=O [1a′S]
[1]
  GI50: 30.3 µM and 35.2 µM
[2]
  Performance as compared to ET-18-O—CH3: 8192
[3]
  Performance as compared to ET-18-O—CH3: 0
[4]
  Performance as compared to ET-18-O—CH3: 0
[5]
  Performance as compared to ET-18-O—CH3: 0
[6]
  Performance as compared to ET-18-O—CH3: </=

## CCCCCCCCCCCCCCCCCCOCC(COP(=O)([O-])OCC[N+](C)(C)C)OS(C)(=O)=O (stereo not drawn) [Compound 1aR]
[2]
  Performance as compared to ET-18-O—CH3: +
[3]
  Performance as compared to ET-18-O—CH3: =
[4]
  Performance as compared to ET-18-O—CH3: =
[5]
  Performance as compared to ET-18-O—CH3: =
[6]
  Performance as compared to ET-18-O—CH3: =/+

## CCCCCCCCCCCCCCCCCCOCC(COP(=O)([O-])OCC[N+](C)(C)C)OC [D-ET18OCH3, 1-O-octadecyl-2-O-methyl-glycerophosphocholine, reference compound]
[1]
  GI50: 41.4 µM
